This is an account of results in publication PMC6199744, “Development of Chemical Proteomics for the Folateome and Analysis of the Kinetoplastid Folateome” (ACS Infectious Diseases, 2018).

Holding throughout (assay type): binding
Test [1] addresses T1, HeLa cell extract proteins (Homo sapiens, UniProt Q9P2K8).
T1 construct: endogenous in cells; host or cells: HeLa cell extract
The conditions noted are these: captured protein EIF2AK4; HeLa.

Test [2] deals with T2, HeLa cell extract proteins (Homo sapiens, UniProt O94822).
T2 construct: endogenous in cells; host or cells: HeLa cell extract
T2 sequence (O94822 whole entry): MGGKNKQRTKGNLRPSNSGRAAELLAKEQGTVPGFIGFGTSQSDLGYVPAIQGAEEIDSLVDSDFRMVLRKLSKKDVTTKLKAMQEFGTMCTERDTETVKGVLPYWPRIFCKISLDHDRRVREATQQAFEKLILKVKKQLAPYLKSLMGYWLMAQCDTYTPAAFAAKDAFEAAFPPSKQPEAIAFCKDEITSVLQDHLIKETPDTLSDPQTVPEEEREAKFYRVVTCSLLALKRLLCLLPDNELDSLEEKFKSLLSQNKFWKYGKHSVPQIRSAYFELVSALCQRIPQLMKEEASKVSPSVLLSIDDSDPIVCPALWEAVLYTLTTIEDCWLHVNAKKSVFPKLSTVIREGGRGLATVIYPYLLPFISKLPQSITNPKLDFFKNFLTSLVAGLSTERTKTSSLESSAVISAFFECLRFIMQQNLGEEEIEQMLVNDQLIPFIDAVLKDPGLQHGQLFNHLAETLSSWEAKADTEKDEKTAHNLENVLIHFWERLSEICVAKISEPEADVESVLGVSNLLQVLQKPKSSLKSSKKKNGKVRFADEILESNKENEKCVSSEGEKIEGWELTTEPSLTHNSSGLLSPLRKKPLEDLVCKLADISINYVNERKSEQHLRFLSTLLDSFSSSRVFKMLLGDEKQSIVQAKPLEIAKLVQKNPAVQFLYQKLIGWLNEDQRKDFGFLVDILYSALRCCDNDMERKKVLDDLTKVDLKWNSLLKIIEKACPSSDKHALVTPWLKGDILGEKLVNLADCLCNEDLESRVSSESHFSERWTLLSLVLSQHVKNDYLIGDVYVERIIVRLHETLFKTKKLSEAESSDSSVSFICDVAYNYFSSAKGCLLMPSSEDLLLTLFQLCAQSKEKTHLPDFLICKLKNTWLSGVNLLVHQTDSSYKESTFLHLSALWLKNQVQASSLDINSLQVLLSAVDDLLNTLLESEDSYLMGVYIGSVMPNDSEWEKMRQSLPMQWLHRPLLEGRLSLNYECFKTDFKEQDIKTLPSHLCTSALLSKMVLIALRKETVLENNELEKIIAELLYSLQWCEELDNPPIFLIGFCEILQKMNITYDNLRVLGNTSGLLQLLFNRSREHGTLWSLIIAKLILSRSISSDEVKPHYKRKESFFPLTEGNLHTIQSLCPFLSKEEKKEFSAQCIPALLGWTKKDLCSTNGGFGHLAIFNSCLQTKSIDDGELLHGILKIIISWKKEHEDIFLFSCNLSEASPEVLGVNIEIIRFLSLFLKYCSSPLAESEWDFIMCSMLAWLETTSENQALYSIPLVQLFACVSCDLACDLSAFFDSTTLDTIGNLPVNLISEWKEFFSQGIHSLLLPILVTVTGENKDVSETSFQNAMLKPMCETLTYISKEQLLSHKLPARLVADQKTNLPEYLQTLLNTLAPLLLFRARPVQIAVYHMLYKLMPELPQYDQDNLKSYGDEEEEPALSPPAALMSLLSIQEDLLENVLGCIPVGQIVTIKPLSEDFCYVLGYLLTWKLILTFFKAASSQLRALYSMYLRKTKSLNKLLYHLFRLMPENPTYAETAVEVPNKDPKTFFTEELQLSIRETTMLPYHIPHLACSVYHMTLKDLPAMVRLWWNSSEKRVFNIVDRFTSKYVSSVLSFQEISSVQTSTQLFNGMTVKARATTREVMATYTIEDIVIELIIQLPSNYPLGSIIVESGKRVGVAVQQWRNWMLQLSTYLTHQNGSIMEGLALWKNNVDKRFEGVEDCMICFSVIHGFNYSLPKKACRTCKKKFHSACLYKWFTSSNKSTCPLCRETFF
To be noted: captured protein RNF160; HeLa.

Test [3] has as its target T3, HeLa cell extract proteins (Homo sapiens, UniProt P49773).
T3 construct: endogenous in cells; host or cells: HeLa cell extract
The conditions noted are these: HeLa; protein HINT1.

In test [4] the target is T4, HeLa cell extract proteins (Homo sapiens, UniProt Q07021).
T4 construct: endogenous in cells; host or cells: HeLa cell extract
T4 sequence (Q07021 74-282): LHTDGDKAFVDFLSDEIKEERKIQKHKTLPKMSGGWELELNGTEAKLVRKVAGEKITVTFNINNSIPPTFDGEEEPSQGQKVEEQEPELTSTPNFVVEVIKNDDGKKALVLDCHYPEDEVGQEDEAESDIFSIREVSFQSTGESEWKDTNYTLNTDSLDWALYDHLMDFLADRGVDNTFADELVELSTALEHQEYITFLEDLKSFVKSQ
To be noted: protein C1QBP; HeLa.

Test [5] deals with T5, HeLa cell extract proteins (Homo sapiens, UniProt P04792).
T5 construct: endogenous in cells; host or cells: HeLa cell extract
T5 sequence (P04792 whole entry): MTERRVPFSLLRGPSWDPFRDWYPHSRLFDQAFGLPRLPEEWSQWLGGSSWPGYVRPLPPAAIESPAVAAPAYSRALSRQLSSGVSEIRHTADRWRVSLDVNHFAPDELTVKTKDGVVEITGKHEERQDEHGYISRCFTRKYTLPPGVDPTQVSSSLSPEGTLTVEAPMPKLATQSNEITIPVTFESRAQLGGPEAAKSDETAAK
The conditions noted are these: protein HSPB1; HeLa.

The target in test [6] is T6, HeLa cell extract proteins (Homo sapiens, UniProt Q8NBE8).
T6 construct: endogenous in cells; host or cells: HeLa cell extract
T6 sequence (Q8NBE8 1-558): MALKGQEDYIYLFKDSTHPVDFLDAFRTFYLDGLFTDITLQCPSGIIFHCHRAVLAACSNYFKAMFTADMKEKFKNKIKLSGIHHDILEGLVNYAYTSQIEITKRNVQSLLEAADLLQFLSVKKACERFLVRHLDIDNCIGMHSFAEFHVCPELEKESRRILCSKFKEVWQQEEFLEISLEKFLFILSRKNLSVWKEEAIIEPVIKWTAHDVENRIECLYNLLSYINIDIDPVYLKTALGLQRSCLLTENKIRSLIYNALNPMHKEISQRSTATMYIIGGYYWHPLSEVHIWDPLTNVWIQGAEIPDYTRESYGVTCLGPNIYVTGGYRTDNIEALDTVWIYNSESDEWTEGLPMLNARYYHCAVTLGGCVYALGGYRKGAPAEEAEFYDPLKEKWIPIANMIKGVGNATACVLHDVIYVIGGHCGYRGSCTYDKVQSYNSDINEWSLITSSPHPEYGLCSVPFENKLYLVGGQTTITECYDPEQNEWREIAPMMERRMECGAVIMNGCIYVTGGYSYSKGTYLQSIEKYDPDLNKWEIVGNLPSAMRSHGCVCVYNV
The conditions noted are these: protein KLHL23; HeLa.

The target of test [7] is T7, HeLa cell extract proteins (Homo sapiens, UniProt P24863).
T7 construct: endogenous in cells; host or cells: HeLa cell extract
T7 sequence (P24863 1-283): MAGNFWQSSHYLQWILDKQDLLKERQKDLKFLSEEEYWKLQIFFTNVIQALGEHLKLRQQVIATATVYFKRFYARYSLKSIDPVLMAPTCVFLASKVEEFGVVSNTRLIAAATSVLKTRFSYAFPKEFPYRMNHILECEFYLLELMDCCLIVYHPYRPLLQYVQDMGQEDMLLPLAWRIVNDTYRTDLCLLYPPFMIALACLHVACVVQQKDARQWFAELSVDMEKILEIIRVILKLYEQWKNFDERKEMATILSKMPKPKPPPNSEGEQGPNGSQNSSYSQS
To be noted: captured protein CCNC; HeLa.

The target in test [8] is T8, HeLa cell extract proteins (Homo sapiens, UniProt Q9HA64).
T8 construct: endogenous in cells; host or cells: HeLa cell extract
T8 sequence (Q9HA64 1-309): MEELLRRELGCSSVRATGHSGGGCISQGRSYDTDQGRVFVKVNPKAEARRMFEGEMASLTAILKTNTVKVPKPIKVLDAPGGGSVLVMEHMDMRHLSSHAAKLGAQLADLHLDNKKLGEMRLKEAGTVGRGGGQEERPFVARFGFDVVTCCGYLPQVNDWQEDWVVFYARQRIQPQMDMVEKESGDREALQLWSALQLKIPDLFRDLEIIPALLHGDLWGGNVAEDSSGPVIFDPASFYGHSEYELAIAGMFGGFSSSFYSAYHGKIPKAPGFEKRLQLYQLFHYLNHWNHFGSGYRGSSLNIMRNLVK
The conditions noted are these: protein FN3KRP; HeLa.

The target of test [9] is T9, HeLa cell extract proteins (Homo sapiens, UniProt Q9BQB6).
T9 construct: endogenous in cells; host or cells: HeLa cell extract
T9 sequence (Q9BQB6 whole entry): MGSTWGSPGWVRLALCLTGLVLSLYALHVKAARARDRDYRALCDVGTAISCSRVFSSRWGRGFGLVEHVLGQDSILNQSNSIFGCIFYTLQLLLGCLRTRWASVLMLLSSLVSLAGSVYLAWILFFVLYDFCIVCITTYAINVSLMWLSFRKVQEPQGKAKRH
The conditions noted are these: HeLa; protein VKORC1.

For test [10], the target named is T10, HeLa cell extract proteins (Homo sapiens, UniProt O95372).
T10 construct: endogenous in cells; host or cells: HeLa cell extract
T10 sequence (O95372 whole entry): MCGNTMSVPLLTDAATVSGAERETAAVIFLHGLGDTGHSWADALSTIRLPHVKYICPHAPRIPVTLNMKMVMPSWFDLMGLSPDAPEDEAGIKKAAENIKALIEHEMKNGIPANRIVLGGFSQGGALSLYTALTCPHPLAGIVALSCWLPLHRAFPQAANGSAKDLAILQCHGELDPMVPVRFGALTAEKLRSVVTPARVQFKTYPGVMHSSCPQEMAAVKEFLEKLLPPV
The conditions noted are these: HeLa; protein LYPLA2.

Test [11] deals with T11, HeLa cell extract proteins (Homo sapiens, UniProt Q9H479).
T11 construct: endogenous in cells; host or cells: HeLa cell extract
T11 sequence (Q9H479 1-309): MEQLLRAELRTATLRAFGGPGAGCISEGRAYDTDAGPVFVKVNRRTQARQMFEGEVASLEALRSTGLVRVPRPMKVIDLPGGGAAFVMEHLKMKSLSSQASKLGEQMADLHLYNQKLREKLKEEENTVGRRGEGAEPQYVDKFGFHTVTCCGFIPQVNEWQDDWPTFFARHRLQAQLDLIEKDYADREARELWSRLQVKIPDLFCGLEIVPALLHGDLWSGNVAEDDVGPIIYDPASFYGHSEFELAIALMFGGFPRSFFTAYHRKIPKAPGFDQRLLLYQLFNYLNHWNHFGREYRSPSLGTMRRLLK
The conditions noted are these: protein FN3K; HeLa.

In test [12] the target is T12, HeLa cell extract proteins (Homo sapiens, UniProt P40925).
T12 construct: endogenous in cells; host or cells: HeLa cell extract
T12 sequence (P40925 1-334): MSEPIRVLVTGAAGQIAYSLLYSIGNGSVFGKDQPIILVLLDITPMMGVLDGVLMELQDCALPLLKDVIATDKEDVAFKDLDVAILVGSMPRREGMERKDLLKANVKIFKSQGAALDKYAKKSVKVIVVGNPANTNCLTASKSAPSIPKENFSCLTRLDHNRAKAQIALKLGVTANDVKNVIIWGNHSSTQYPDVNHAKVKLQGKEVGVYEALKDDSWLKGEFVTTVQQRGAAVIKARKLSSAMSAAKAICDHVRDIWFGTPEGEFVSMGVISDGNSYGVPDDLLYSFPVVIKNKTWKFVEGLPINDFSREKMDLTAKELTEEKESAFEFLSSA
The conditions noted are these: HeLa; protein MDH1 (MALATE DEHYDROGENASE, CYTOPLASMIC.).

The target of test [13] is T13, HeLa cell extract proteins (Homo sapiens, UniProt P46940).
T13 construct: endogenous in cells; host or cells: HeLa cell extract
To be noted: protein IQGAP1; HeLa.

SMILES strings stand for the structures.

T3 sequence (P49773 whole entry): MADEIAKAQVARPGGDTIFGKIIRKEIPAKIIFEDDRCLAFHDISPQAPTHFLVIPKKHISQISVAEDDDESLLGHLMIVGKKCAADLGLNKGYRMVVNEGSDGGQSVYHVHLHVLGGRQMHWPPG
T1 sequence (Q9P2K8 whole entry): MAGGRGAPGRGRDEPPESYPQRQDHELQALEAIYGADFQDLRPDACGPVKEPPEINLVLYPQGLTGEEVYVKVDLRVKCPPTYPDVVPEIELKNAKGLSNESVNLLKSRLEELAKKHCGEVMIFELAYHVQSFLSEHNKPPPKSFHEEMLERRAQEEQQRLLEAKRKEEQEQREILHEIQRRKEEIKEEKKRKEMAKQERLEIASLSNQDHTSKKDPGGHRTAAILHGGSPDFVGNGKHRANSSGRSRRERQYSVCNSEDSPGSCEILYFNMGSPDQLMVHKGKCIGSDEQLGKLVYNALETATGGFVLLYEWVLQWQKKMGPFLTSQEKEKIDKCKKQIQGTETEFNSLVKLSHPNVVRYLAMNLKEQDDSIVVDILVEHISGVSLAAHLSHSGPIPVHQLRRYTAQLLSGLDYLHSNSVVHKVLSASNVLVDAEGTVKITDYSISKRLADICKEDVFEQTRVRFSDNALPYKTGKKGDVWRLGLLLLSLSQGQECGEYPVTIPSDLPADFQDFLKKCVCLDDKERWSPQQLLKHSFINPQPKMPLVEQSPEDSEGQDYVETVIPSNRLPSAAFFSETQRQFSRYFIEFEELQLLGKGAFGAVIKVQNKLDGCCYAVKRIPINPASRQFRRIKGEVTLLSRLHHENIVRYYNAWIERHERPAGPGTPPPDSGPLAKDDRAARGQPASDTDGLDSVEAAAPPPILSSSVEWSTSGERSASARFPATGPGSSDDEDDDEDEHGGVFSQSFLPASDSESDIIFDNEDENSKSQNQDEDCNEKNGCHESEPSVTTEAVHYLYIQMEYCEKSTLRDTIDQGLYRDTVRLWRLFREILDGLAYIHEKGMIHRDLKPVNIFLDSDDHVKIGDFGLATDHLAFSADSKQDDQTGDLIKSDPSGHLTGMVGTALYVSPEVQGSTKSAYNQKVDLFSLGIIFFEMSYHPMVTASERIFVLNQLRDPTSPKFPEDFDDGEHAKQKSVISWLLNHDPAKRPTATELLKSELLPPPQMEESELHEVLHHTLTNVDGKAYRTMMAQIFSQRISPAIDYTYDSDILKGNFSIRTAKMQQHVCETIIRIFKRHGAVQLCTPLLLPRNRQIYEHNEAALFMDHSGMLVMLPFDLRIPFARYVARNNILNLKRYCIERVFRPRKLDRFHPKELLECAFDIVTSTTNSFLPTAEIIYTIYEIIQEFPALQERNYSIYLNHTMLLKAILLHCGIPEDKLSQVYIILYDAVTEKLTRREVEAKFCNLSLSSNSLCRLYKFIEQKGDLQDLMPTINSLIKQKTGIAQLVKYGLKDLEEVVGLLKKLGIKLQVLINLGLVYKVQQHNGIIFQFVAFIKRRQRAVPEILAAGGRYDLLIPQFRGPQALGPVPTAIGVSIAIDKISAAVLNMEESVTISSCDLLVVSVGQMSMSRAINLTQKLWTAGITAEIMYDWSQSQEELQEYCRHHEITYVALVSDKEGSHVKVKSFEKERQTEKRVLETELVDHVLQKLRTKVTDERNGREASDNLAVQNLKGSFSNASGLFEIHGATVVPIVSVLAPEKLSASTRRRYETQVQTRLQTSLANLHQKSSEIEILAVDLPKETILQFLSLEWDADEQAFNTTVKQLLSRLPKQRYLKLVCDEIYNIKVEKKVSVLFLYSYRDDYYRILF

For the compound `CCCCCCOc1cccc(Cc2cnc(N)nc2N)c1` [compound 2], the “fold changes relative to vehicle control” value was determined as 0.96 in [1]; 1.08 in test [2]; 0.99 in [3]; 1.27 in test [4]; 1.38 in [5]; 0.94 in test [6]. The “fold changes relative to vehicle control” value in test [7] turned out to be 0.9; in test [8], 0.9; in test [9], 1.05; in test [10], 1.19; in test [11], 1.06; in test [12], 2.15 fold. Besides, the “fold changes relative to vehicle control” value in test [13] is 1.69.
